# Patent US10376586B2, “Method and compositions for solubilizing non-polar constituents” (Entourage Bioscience, LLC, priority 2016, dated 2019)
# Columns and labels:
# [1] = solubility / solubilization in the MCT carrier oil; details: for stable solution concentration in MCTs: MCTs (0.0-6.0% C6, 6.0-60% C8, 6.0-60% C10), stirring at 85 degrees Celsius for 5 minutes
# Description: The process for solubilizing target compounds according to the disclosure comprises, in particular, the following steps: (a) preparation of a carrier liquid solution comprising a mixture of medium-chain triglycerides, an amount of this carrier liquid solution is used, the amount depending on the amount of target compound to be solubilized; (b) admixing the carrier liquid solution with the target compound; (c) and, optionally, admixing a stabilizing compound to the carrier liquid/target compound. In some cases, depending on the compound to be solubilized, solvents that dissolve both polar and non-polar compounds such as ethanol, methanol, acetonitrile, 1-butanol or isopropyl alcohol, may be added to encourage solubilization, and then removed by vacuum evaporation. As another aspect, during compounding, dry inert gas may be filtered through the mixture to remove moisture.
# Riboflavin is known to have poor solubility in aqueous solutions and organic solvents. […] It may be desirable to solubilize a higher concentration of riboflavin in an ENDS. […] This mixture may then be added to MCTs (for example 0.0-6.0% C6, 6.0-60% C8, and/or 6.0-60% C10), homogenized for 5 minutes and subsequently heated to approximately 85 degrees Celsius at 250 mb (or 250 hPa) pressure in a rotary evaporator to drive off the methanol.
# Another example may be sulbutiamine. Sulbutiamine is a disulfide dimer of thiamine. […] It may be desirable to provide sulbutiamine in an ENDS. […]
# [2] = cited from earlier work
# [3] = cited from earlier work; remark: listed apart in the source
# [4] = cited from earlier work; remark: listed apart in the source
# [5] = cited from earlier work; remark: listed apart in the source
structure (smiles),measurement,setting,value
"CC(=C(CCOC(=O)C(C)C)SSC(CCOC(=O)C(C)C)=C(C)N(C=O)Cc1cnc(C)nc1N)N(C=O)Cc1cnc(C)nc1N (stereo in doubt) [sulbutiamine, reference compound]",stable solution concentration in MCTs,[1],200 mg/mL
same,solubility in aqueous solutions,[2]; aqueous solutions,insoluble
same,solubility in fats,[3],highly soluble
CC1=C(/C=C/C(C)=C/C=C/C(C)=C/C=C/C=C(C)/C=C/C=C(C)/C=C/C2=C(C)C(=O)[C@@H](O)CC2(C)C)C(C)(C)C[C@H](O)C1=O [Astaxanthin],quantity incorporated into the carrier oil by admixing,[1],< 2 mg/mL
"C=C(C)[C@@H]1CCC(C)=C[C@H]1c1c(O)cc(CCCCC)cc1O [Cannabidiol, cannabidiol, reference compound]",solubilized amount in MCTs,"[1]; MCTs, stirring at 45 to 65 degrees Celsius for 5 minutes",up to 80 percent v/v
CC1=CCCC(C)(C)C1/C=C/C(C)=C/C=C/C(C)=C/C=C/C=C(C)/C=C/C=C(C)/C=C/C1=C(C)CCCC1(C)C (stereo not drawn) [alpha-carotene],quantity incorporated into the carrier oil by admixing,[1],< 2 mg/mL
CCCCCCCCCCCCCCCC(=O)OC[C@H](O)[C@H]1OC(=O)C(O)=C1O [ascorbyl palmitate],stable solution concentration in MCTs,[1],200 mg/mL
CC1=C[C@H](O)CC(C)(C)[C@H]1/C=C/C(C)=C/C=C/C(C)=C/C=C/C=C(C)/C=C/C=C(C)/C=C/C1=C(C)C[C@@H](O)CC1(C)C [lutein],stable solution concentration in MCTs,[1],200 mg/mL
CC(C)=CCC/C(C)=C/C=C/C(C)=C/C=C/C(C)=C/C=C/C=C(C)/C=C/C=C(C)/C=C/C=C(\C)CCC=C(C)C [lycopene],stable solution concentration in MCTs,[1],200 mg/mL
O=C(O)Cc1ccccc1 [phenylacetic acid],pKa,[4],comparable to benzoic acid
same,log P (partition co-efficient),[5],comparable to benzoic acid
Cc1cc2nc3c(=O)[nH]c(=O)nc-3n(C[C@H](O)[C@H](O)[C@H](O)CO)c2cc1C [riboflavin],solubility in MCTs versus aqueous solutions,[1],an order of magnitude greater solubility
same,"solubility in vegetable glycerin, propylene glycol and water","[2]; vegetable glycerin, propylene glycol and water",less than 0.2 mg/ml
C=C1CC[C@H](O)C/C1=C/C=C1\CCC[C@]2(C)[C@@H]([C@H](C)CCCC(C)C)CC[C@@H]12 [vitamin-D3],miscibility with the carrier oil,[1]; simple admixing with the carrier oil,any proportion
